Patent US20190225683A1, “TARGETING OXAZOLE STRUCTURES FOR THERAPY AGAINST INFLAMMATORY DISEASES” (THE BRIGHAM AND WOMEN'S HOSPITAL, INC., priority 2015, published 2019)
Entries after “also recorded” stand apart in the source; their conditions may differ.

Assays:
MODE-K cells = MODE-K cells stimulated with compounds, Mttp and Cxcl16 transcripts by qPCR; format: cell-based, mouse; settings: for Cxcl16 transcript expression / Mttp transcript expression: MODE-K cells, 48 hours, qPCR normalized to β-actin; for Transcriptional pattern of NKT signature genes (Mttp, Cxcl16): MODE-K epithelial cells
Protocol: Mode-K cells were stimulated for 48 hours with the listed compounds and MUT) (2A) and Cxcl16 (2B) transcript express was quantified by qPCR normalized to β-actin, a housekeeping gene. Graph color coded to indicate control, OxC, and ITE compounds. […]
Kinetic transcript profiles of Mttp, Cxcl16, CD1d, and Hsp110 are assessed by qPCR normalizing transcript abundance to house keeping gene, (3-actin. Protein expression is quantified by immunoblot (MTTP, HSP110) or ELISA (CXCL16). CD1d protein expression is monitored using monoclonal antibodies conjugated to phycoerythrin and fluorescein isothyocynate to assess CD1d trafficking to and from the cell surface.[89]Stimulatory ligands are washed out prior to administration of αGC, and conditioned cells are co-cultured over night with 4 classes of invariant (DN32.D3, 24.7, 24.8) or non-variant (14S.6) to assess αGC specific and autoreactive responses to epithelial and myeloid cell lipid presentation. Production of IL-10, IL-4, IL-13, IFNγ response to epithelial and myeloid, and the source of cytokine production (APC or NKT) are determined using gluteraldehyde fixation. Primary iNKT cells are isolated from colonic lamina propria or peripheral organs (liver, spleen, mesenteric lymph node) and purified by FACS (BD ARIA-II Sorter) using monoclonal antibodies against CD45, TCRI3, CD3E, and CD1d:αGC loaded tetramer (APC conjugated) and exclusion of unloaded CD1d tetramer (PE). […] Strand specific libraries are generated using 500 ng RNA input and subject to paired-end 100 bp read sequencing using a HISEQ2000 at the Dana Farber Cancer Institute. Sequence reads are aligned to the mouse mm10 reference genome using Tophat alignments restricted to uniquely mapping reads with <2 possible mismatches permitted. […] Candidate transcripts arevalidated in primary IECs (EpCAM+ CD45−) or mucosal APCs by qPCR.

24.7 NKT hybridoma = experiment: Compound-conditioned MODE-K cells incubated with alpha-galactosylceramide, co-cultured with 24.7 iNKT hybridoma, IL-10 by ELISA; format: cell-based, mouse; settings: MODE-K conditioned with compound or lysate, αGC presented on CD1d
Protocol: FIGS. 3A-3B depict in accordance with an embodiment of the invention, (3A) MODE-K cells transfected with control- or AhR-targeted siRNA. After 48 hours, these cells were stimulated with the compounds indicated for 48 hours. Cells were washed and incubated with alpha-galactosylceramide and subsequently co-cultured with the 24.7 NKT hybridoma. IL-10 production was measured by ELISA. (3B) Hepatocytes from WT or AhR-deficient mice were stimulated as in (3A).
FIGS. 7A-7B depict in accordance with an embodiment of the invention, (7A) structure of the OxC compound, B17 microcin. […] Cells were incubated with aGC and co-cultured with24.7 iNKT hybridoma and IL-10 production was measured. “[…]”, “G2QG2”, “GGNG”, and “GSHI” are disclosed as SEQ ID NO: 3, SEQ ID NO: 6, SEQ ID NO: 5, and SEQ ID NO: 2, respectively.
Kinetic transcript profiles of Mttp, Cxcl16, CD1d, and Hsp110 are assessed by qPCR normalizing transcript abundance to house keeping gene, (3-actin. Protein expression is quantified by immunoblot (MTTP, HSP110) or ELISA (CXCL16). CD1d protein expression is monitored using monoclonal antibodies conjugated to phycoerythrin and fluorescein isothyocynate to assess CD1d trafficking to and from the cell surface.[89]Stimulatory ligands are washed out prior to administration of αGC, and conditioned cells are co-cultured over night with 4 classes of invariant (DN32.D3, 24.7, 24.8) or non-variant (14S.6) to assess αGC specific and autoreactive responses to epithelial and myeloid cell lipid presentation. Production of IL-10, IL-4, IL-13, IFNγ response to epithelial and myeloid, and the source of cytokine production (APC or NKT) are determined using gluteraldehyde fixation. […] Strand specific libraries are generated using 500 ng RNA input and subject to paired-end 100 bp read sequencing using a HISEQ2000 at the Dana Farber Cancer Institute. Sequence reads are aligned to the mouse mm10 reference genome using Tophat alignments restricted to uniquely mapping reads with <2 possible mismatches permitted. […]

[1] = Colitis model: skin pre-sensitization, then intra-rectal administration; format: in vivo, mice
Protocol: Colitis scores were blindly performed by a pathologist.
Distal colon explants were cultured overnight and IL-10 (6A) and IL-13 (6B) production was measured by ELISA.
Changes in weight are monitored and colons harvested on day 3 and day 5 post-rectal challenge for histopathological analysis. Distalhyperemia in the mucosa, cellular infiltration in the lamina propria, elongation of colonic mucosa, epithelial erosion. The number of conventional T cells, NKT cells and mucosal APC subsets are enumerated by established flow cytometry protocols.[11] In addition, kinetic cytokine profiles are analyzed to verify that OxC colitis phenocopies molecular signatures associated with oxazolone colitis. […] [8] In addition, colonic IECs and lamina propria mononuclear cells are sorted by FACS and analyzed for Mttp and Cxcl16 expression by qPCR.

AhR reporter = AhR reporter assay; format: cell-based; settings: FIG. 14
NFkB reporter = NFkB reporter assay; format: cell-based; settings: FIG. 14
[2] = tested on: AhR response elements (XRE); settings: cited from earlier work
AhR [3] = target: T1, AhR (Homo sapiens, UniProt P35869); settings: hepatocyte reporter assay; cited from earlier work
T1 construct: endogenous in cells; host or cells: HepG2
T1 sequence (P35869 11-848): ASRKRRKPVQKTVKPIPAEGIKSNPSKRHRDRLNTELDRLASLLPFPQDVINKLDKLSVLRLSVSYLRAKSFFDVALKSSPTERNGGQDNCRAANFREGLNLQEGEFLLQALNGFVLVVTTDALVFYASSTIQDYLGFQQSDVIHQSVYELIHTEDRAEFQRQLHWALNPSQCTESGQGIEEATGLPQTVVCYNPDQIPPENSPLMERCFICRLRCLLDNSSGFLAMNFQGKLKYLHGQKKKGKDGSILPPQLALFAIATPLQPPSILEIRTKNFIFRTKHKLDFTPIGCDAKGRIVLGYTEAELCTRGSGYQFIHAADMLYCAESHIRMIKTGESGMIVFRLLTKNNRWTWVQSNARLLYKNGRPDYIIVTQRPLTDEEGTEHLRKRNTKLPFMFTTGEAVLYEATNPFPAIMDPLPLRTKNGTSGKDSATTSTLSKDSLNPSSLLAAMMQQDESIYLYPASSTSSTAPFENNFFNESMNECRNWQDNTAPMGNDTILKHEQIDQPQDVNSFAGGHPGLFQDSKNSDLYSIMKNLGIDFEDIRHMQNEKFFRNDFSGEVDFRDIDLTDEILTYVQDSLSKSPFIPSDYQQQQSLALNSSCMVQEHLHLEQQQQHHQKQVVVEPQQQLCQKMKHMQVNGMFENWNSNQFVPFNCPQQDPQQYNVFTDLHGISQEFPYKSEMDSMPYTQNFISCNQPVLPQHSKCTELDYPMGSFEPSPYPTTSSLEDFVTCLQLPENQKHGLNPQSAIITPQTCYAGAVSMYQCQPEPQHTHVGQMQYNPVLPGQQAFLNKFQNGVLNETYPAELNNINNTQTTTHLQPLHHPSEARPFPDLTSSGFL

[4] = target: T2, aryl hydrocarbon receptor (AhR) (Homo sapiens, UniProt P35869); settings: previous studies; cited from earlier work
T2 sequence (P35869 11-848): T1 sequence (P35869 11-848)

AhR [5] = experiment: AhR targets Cyp1a1 and IDO1 by qPCR in MODE-K cells with control or AhR-targeted siRNA; format: cell-based, mouse; settings: MODE-K cells or primary hepatocytes
Protocol: FIGS. 8A-8C depict in accordance with an embodiment of the invention, MODE-K transfected with control or AhR-targeted siRNA. After 48 hours, MODE-K cells were stimulated with the indicated compounds. Cyp1a1 (8A) or IDO1 (8B, 8C) were quantified by qPCR.
Stimulation of MODE-K cells with OxC compounds but not control compounds differentially regulates two well characterized AhR targets: Cyp1a1,[68] and IDO1. [FIG. 8] Specific siRNA mediated knockdown of the AhR in MODE-K cells diminished expression of both AhR targets in response to OxC stimulation.

[6] = compared to vehicle treated control animals

## CC1CC(C)C(C)C1 (stereo not shown) [TMC, 1,2,4-trimethylcyclopentane]
MODE-K cells
  Cxcl16 transcript expression: loss of these biological effects
  Mttp transcript expression: loss of these biological effects

## CC1=NC(C)OC1C (stereo not shown) [TMO, 2,4,5-trimethyl-2,5-dihydro-1,3-oxazole]
MODE-K cells
  Cxcl16 transcript expression: induce CXCL16
  Mttp transcript expression: suppress Mttp
24.7 NKT hybridoma
  IL-10 production by iNKT cells co-cultured with conditioned cells: diminished; also recorded: inhibited IL-10 production
[1]; [6]
  Colitis phenotype in vivo: phenocopies the inflammation associated with oxazolone
  Colon shortening: colon shortening
  Expression of Th2 cytokines: expression of Th2 cytokines characteristic of ulcerative colitis
  Histopathology, blind scoring by a pathologist: histopathology (based on blind scoring by a pathologist)
  Weight loss: increased weight loss
AhR reporter
  AhR reporter activation: activate an AhR reporter
NFkB reporter
  NFkB reporter activation: not an NFkB reporter

## 1-methyl-pyrroline [MP]
MODE-K cells
  Cxcl16 transcript expression: loss of these biological effects
  Mttp transcript expression: loss of these biological effects

## COC(=O)c1csc(C(=O)c2c[nH]c3ccccc23)n1 [ITE, 2-(1H-Indol-3-carbonyl)-4-thiazolecarboxylic acid methyl ester]
[2]
  Concentration activating XRE: picomolar concentrations

## C=CC1(C)OC(=O)N(c2cc(Cl)cc(Cl)c2)C1=O (stereo not shown) [Vinclozolin, vinclozolin]
MODE-K cells
  Transcriptional pattern of NKT signature genes (Mttp, Cxcl16): demonstrates a similar transcriptional pattern
MODE-K cells; preliminary experiments, FIGS. 2, 3
  Cellular responses (transcriptional changes and NKT responses): elicit similar cellular responses as oxazolone and TMO
24.7 NKT hybridoma
  IL-10 production by iNKT cells co-cultured with conditioned cells: exerts modulatory effects on iNKT cell responses similar oxazolone
AhR [3]
  AhR activation in HepG2: AhR activator
[4]
  AhR ligand status: ligand for the aryl hydrocarbon receptor (AhR)

## CCO/C=C1\N=C(c2ccccc2)OC1=O [oxazolone, 4-ethoxymethylene-2-phenyl-oxazol-5-one]
MODE-K cells
  Cxcl16 transcript expression: induce CXCL16
  Mttp transcript expression: suppress Mttp
  Transcriptional pattern of NKT signature genes (Mttp, Cxcl16): modulates specific gene targets involved in NKT cell biology
24.7 NKT hybridoma
  IL-10 production by iNKT cells co-cultured with conditioned cells: diminished; also recorded: inhibited IL-10 production
[1]; 3% presensitization, 1% intra-rectal, epithelial AhR deficiency
  Oxazolone colitis in Vil-Cre+ X AhR fl/fl mice: protected against oxazolone colitis
AhR [5]
  Expression of AhR targets Cyp1a1 and IDO1: modulates well-characterized AhR targets
AhR reporter
  AhR reporter activation: activate an AhR reporter
NFkB reporter
  NFkB reporter activation: not an NFkB reporter
